How the values were obtained:
Assay type in all cases: in vivo
[1] = tested on: Echinochloa crus-galli var. crus-galli; experiment: Test Example 5: herbicidal effect by foliage application, plastic box (symbol H); settings: 320 g/ha, 3 weeks after application
Method in brief: (§1)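 Greenhouse foliar test: seedlings at 14 days, grown 25° C. to 30° C. in sterilized diluvial soil; compound applied as an aqueous dilution of an emulsion; response read 3 weeks after spraying.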

soybean = experiment: Test Example 4: effect on crop by soil treatment (symbol d); settings: application herbicide amount 320 g/ha
Method in brief: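 Plants grew in a 25° C. to 30° C. greenhouse after spot-sowing of seeds, including beet, rapeseed, wheat and rice, into sterilized diluvial soil under roughly 1.5 cm of cover soil.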

Stellaria media = experiment: Test Example 5: herbicidal effect by foliage application, plastic box (symbol P); settings: 320 g/ha, 3 weeks after application
Method in brief: as §1

beet = experiment: Test Example 5: effect on crop by foliage application, plastic box (symbol f); settings: 320 g/ha, 3 weeks after application
Method in brief: (§2)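 Box culture: sterile diluvial soil, seeds spot-sown, ~1.5 cm cover, raised under glass at 25–30° C.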

Leptochloa chinensis = experiment: Test Example 3: herbicidal effect by foliage application, Wagner pot (symbol D); settings: application herbicide amount 320 g/ha
Method in brief: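 Post-emergence, paddy-type test: seedlings 14 d old in shallow-flooded (0.1–0.5 cm) alluvial soil, 25–30 °C greenhouse. Emulsion diluted to target rate, sprayed on leaves. Read-out: visual effect on each species at 3 weeks, per set criteria.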

Abutilon theophrasti = experiment: Test Example 5: herbicidal effect by foliage application, plastic box (symbol M); settings: 320 g/ha, 3 weeks after application
Method in brief: as §1

Veronica persica = experiment: Test Example 5: herbicidal effect by foliage application, plastic box (symbol R); settings: 320 g/ha, 3 weeks after application
Method in brief: as §1

Digitaria ciliaris = experiment: Test Example 5: herbicidal effect by foliage application, plastic box (symbol F); settings: 320 g/ha, 3 weeks after application
Method in brief: as §1

Amaranthus retroflexus = experiment: Test Example 4: herbicidal effect by soil treatment (symbol N); settings: application herbicide amount 320 g/ha
Method in brief: (§3)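 Seeds were sown in sterilized diluvial soil, covered with about 1.5 cm of soil, and the soil surface was sprayed with a water-diluted emulsion of the compound at a predetermined rate. Plants grew in a greenhouse at 25° C. to 30° C.; effects were scored visually 3 weeks after application.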

rapeseed = experiment: Test Example 5: effect on crop by foliage application, plastic box (symbol g); settings: 320 g/ha, 3 weeks after application
Method in brief: as §2

Avena fatua [2] = experiment: Test Example 4: herbicidal effect by soil treatment (symbol I); settings: application herbicide amount 320 g/ha
Method in brief: as §3

Apera spica-venti [3] = experiment: Test Example 4: herbicidal effect by soil treatment (symbol L); settings: application herbicide amount 320 g/ha
Method in brief: as §3

Galium spurium [4] = experiment: Test Example 4: herbicidal effect by soil treatment (symbol Q); settings: application herbicide amount 320 g/ha
Method in brief: as §3

Avena fatua [5] = experiment: Test Example 5: herbicidal effect by foliage application, plastic box (symbol I); settings: 320 g/ha, 3 weeks after application
Method in brief: as §1

Apera spica-venti [6] = experiment: Test Example 5: herbicidal effect by foliage application, plastic box (symbol L); settings: 320 g/ha, 3 weeks after application
Method in brief: as §1

Chenopodium album = experiment: Test Example 5: herbicidal effect by foliage application, plastic box (symbol O); settings: 320 g/ha, 3 weeks after application
Method in brief: as §1

Galium spurium [7] = experiment: Test Example 5: herbicidal effect by foliage application, plastic box (symbol Q); settings: 320 g/ha, 3 weeks after application
Method in brief: as §1

Setaria viridis = experiment: Test Example 4: herbicidal effect by soil treatment (symbol G); settings: application herbicide amount 320 g/ha
Method in brief: as §3

Scirpus juncoides = experiment: Test Example 1: herbicidal activity, application before weed generation in submerged conditions (symbol B); settings: application herbicide amount 320 g/ha
Method in brief: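 Mixed weed seeds sown in alluvial soil under 4 cm of water, with rice seedlings at the 2.5-leaf stage added. Same-day treatment: emulsion diluted to a set herbicide amount onto the water. Three weeks at 25–30 °C, then graded on a six-step scale.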

| Compound | H: Echinochloa crus-galli var. crus-galli, herbicidal effect (criteria of Test Example 1) [1] | d: soybean, effect on crop grade (soybean) | P: Stellaria media, herbicidal effect (criteria of Test Example 1) (Stellaria media) | f: beet, effect on crop (criteria of Test Example 1) (beet) | herbicidal effect on D (Leptochloa chinensis), grade 0-5 (Leptochloa chinensis) | M: Abutilon theophrasti, herbicidal effect (criteria of Test Example 1) (Abutilon theophrasti) | R: Veronica persica, herbicidal effect (criteria of Test Example 1) (Veronica persica) | F: Digitaria ciliaris, herbicidal effect (criteria of Test Example 1) (Digitaria ciliaris) | N: Amaranthus retroflexus, herbicidal effect grade (Amaranthus retroflexus) | g: rapeseed, effect on crop (criteria of Test Example 1) (rapeseed) | I: Avena fatua, herbicidal effect grade (Avena fatua [2]) | L: Apera spica-venti, herbicidal effect grade (Apera spica-venti [3]) | Q: Galium spurium, herbicidal effect grade (Galium spurium [4]) | I: Avena fatua, herbicidal effect (criteria of Test Example 1) (Avena fatua [5]) | L: Apera spica-venti, herbicidal effect (criteria of Test Example 1) (Apera spica-venti [6]) | O: Chenopodium album, herbicidal effect (criteria of Test Example 1) (Chenopodium album) | Q: Galium spurium, herbicidal effect (criteria of Test Example 1) (Galium spurium [7]) | G: Setaria viridis, herbicidal effect grade (Setaria viridis) | Herbicidal effect grade, B: Scirpus juncoides (Scirpus juncoides) | other results |
| --- | --- | --- | --- | --- | --- | --- | --- | --- | --- | --- | --- | --- | --- | --- | --- | --- | --- | --- | --- | --- |
| CON=C(C)CC1CC(O)=C(c2c(C)cc(C)cc2SC)C1=O (stereo not shown) [6-075] | 2 (Herbicidal ratio of 20% or higher and lower than 40%) | 0 (Herbicidal ratio of 5% or lower (almost no effect)) | 0 (Herbicidal ratio of 5% or lower (almost no effect)) | 0 (Herbicidal ratio of 5% or lower (almost no effect)) | 3 (Herbicidal ratio of 40% or higher and lower than 70%) | 0 (Herbicidal ratio of 5% or lower (almost no effect)) | 0 (Herbicidal ratio of 5% or lower (almost no effect)) | 1 (Herbicidal ratio of 5% or higher and lower than 20%) | 0 (Herbicidal ratio of 5% or lower (almost no effect)) | 3 (Herbicidal ratio of 40% or higher and lower than 70%) | 0 (Herbicidal ratio of 5% or lower (almost no effect)) | 3 (Herbicidal ratio of 40% or higher and lower than 70%) | 0 (Herbicidal ratio of 5% or lower (almost no effect)) | 5 (Herbicidal ratio of 90% or more (almost completely withered)) | 5 (Herbicidal ratio of 90% or more (almost completely withered)) | 0 (Herbicidal ratio of 5% or lower (almost no effect)) | 0 (Herbicidal ratio of 5% or lower (almost no effect)) | 0 (Herbicidal ratio of 5% or lower (almost no effect)) | 1 (Herbicidal ratio of 5% or higher and lower than 20%) |  |
| COC(=O)CON=C(C)CC1CC(O)=C(c2c(C)cc(C)cc2C)C1=O (stereo not shown) [1-023] |  |  |  |  | 5 (Herbicidal ratio of 90% or more (almost completely withered)) |  |  |  |  |  |  |  |  |  |  |  |  |  | 0 (Herbicidal ratio of 5% or lower (almost no effect)) | H: Echinochloa crus-galli var. crus-galli, herbicidal effect grade [1]: 4 (Herbicidal ratio of 70% or higher and lower than 90%); d (soybean) effect on crop grade (soybean): 0 (Herbicidal ratio of 5% or lower (almost no effect)); P: Stellaria media, herbicidal effect grade (Stellaria media): 0 (Herbicidal ratio of 5% or lower (almost no effect)); f: beet, effect on crop grade (beet): 0 (Herbicidal ratio of 5% or lower (almost no effect)); M: Abutilon theophrasti, herbicidal effect grade (Abutilon theophrasti): 0 (Herbicidal ratio of 5% or lower (almost no effect)); R: Veronica persica, herbicidal effect grade (Veronica persica): 0 (Herbicidal ratio of 5% or lower (almost no effect)); F: Digitaria ciliaris, herbicidal effect grade (Digitaria ciliaris): 2 (Herbicidal ratio of 20% or higher and lower than 40%); N (Amaranthus retroflexus) herbicidal effect grade (Amaranthus retroflexus): 0 (Herbicidal ratio of 5% or lower (almost no effect)); g: rapeseed, effect on crop grade (rapeseed): 2 (Herbicidal ratio of 20% or higher and lower than 40%); I (Avena fatua) herbicidal effect grade (Avena fatua [2]): 0 (Herbicidal ratio of 5% or lower (almost no effect)); L (Apera spica-venti) herbicidal effect grade (Apera spica-venti [3]): 4 (Herbicidal ratio of 70% or higher and lower than 90%); Q (Galium spurium) herbicidal effect grade (Galium spurium [4]): 0 (Herbicidal ratio of 5% or lower (almost no effect)); I: Avena fatua, herbicidal effect grade (Avena fatua [5]): 1 (Herbicidal ratio of 5% or higher and lower than 20%); L: Apera spica-venti, herbicidal effect grade (Apera spica-venti [6]): 4 (Herbicidal ratio of 70% or higher and lower than 90%); O: Chenopodium album, herbicidal effect grade (Chenopodium album): 0 (Herbicidal ratio of 5% or lower (almost no effect)); Q: Galium spurium, herbicidal effect grade (Galium spurium [7]): 2 (Herbicidal ratio of 20% or higher and lower than 40%); G (Setaria viridis) herbicidal effect grade (Setaria viridis): 3 (Herbicidal ratio of 40% or higher and lower than 70%) |
| COc1cc(C)c(C2=C(O)CC(CC(C)=O)C2=O)c(C)c1 (stereo not shown) [7-020] | 4 (Herbicidal ratio of 70% or higher and lower than 90%) |  | 0 (Herbicidal ratio of 5% or lower (almost no effect)) | 0 (Herbicidal ratio of 5% or lower (almost no effect)) | 5 (Herbicidal ratio of 90% or more (almost completely withered)) | 0 (Herbicidal ratio of 5% or lower (almost no effect)) | 0 (Herbicidal ratio of 5% or lower (almost no effect)) | 5 (Herbicidal ratio of 90% or more (almost completely withered)) |  | 2 (Herbicidal ratio of 20% or higher and lower than 40%) |  |  |  | 0 (Herbicidal ratio of 5% or lower (almost no effect)) | 3 (Herbicidal ratio of 40% or higher and lower than 70%) | 0 (Herbicidal ratio of 5% or lower (almost no effect)) | 0 (Herbicidal ratio of 5% or lower (almost no effect)) |  | 0 (Herbicidal ratio of 5% or lower (almost no effect)) | Effect on crop grade, d: soybean (soybean): 0 (Herbicidal ratio of 5% or lower (almost no effect)); Herbicidal effect grade, N: Amaranthus retroflexus (Amaranthus retroflexus): 0 (Herbicidal ratio of 5% or lower (almost no effect)); Herbicidal effect grade, I: Avena fatua (Avena fatua [2]): 0 (Herbicidal ratio of 5% or lower (almost no effect)); Herbicidal effect grade, L: Apera spica-venti (Apera spica-venti [3]): 0 (Herbicidal ratio of 5% or lower (almost no effect)); Herbicidal effect grade, Q: Galium spurium (Galium spurium [4]): 0 (Herbicidal ratio of 5% or lower (almost no effect)); Herbicidal effect grade, G: Setaria viridis (Setaria viridis): 2 (Herbicidal ratio of 20% or higher and lower than 40%) |
| CON=C(C)CC1CC(O)=C(c2c(C)cc(C(C)=NOC)cc2C)C1=O (stereo not shown) [6-065] | 5 (Herbicidal ratio of 90% or more (almost completely withered)) | 0 (Herbicidal ratio of 5% or lower (almost no effect)) | 3 (Herbicidal ratio of 40% or higher and lower than 70%) | 3 (Herbicidal ratio of 40% or higher and lower than 70%) | 5 (Herbicidal ratio of 90% or more (almost completely withered)) | 2 (Herbicidal ratio of 20% or higher and lower than 40%) | 3 (Herbicidal ratio of 40% or higher and lower than 70%) | 5 (Herbicidal ratio of 90% or more (almost completely withered)) | 4 (Herbicidal ratio of 70% or higher and lower than 90%) | 4 (Herbicidal ratio of 70% or higher and lower than 90%) | 4 (Herbicidal ratio of 70% or higher and lower than 90%) | 5 (Herbicidal ratio of 90% or more (almost completely withered)) | 4 (Herbicidal ratio of 70% or higher and lower than 90%) | 5 (Herbicidal ratio of 90% or more (almost completely withered)) | 5 (Herbicidal ratio of 90% or more (almost completely withered)) | 1 (Herbicidal ratio of 5% or higher and lower than 20%) | 3 (Herbicidal ratio of 40% or higher and lower than 70%) | 5 (Herbicidal ratio of 90% or more (almost completely withered)) | 2 (Herbicidal ratio of 20% or higher and lower than 40%) |  |
